Holding throughout (assay type): cell-based
Holding throughout (conditions): in the presence of β lactamase inhibitor Relebactam 4 μg/mL; 22 hours at 35±2° C.; lowest concentration inhibiting 95% of growth (OD600)

For assay [1], the system named is Escherichia coli expressing NDM-1 (CLB30016). The assay is described as follows: Growth inhibitory concentration (OD600), Escherichia coli CLB30016. The method, then:
(§1) Antibiotic Activity: Determination of Growth Inhibitory Concentration
(§2) The concentrations of compounds required to inhibit the growth of various strains of bacteria were determined in an assay that assessed bacterial growth by measuring optical density at 600 nm (OD600). The bacterial strains tested included the clinical strains Escherichia coli expressing NDM-1 (CLB30016), Klebsiella pneumoniae expressing KPC-1 (CL6569), Acinetobacter baumannii expressing TEM-1, AmpC, and Oxa-24/40 (CL6188) and Pseudomonas aeruginosa expressing AmpC (CL5701). All compounds were tested in the presence of a β lactamase inhibitor (BLi, Relebactam) in 384-well microplates. The clinical strains were stored as frozen single use stocks, thawed and diluted into 1.1× cation-adjusted Mueller-Hinton II broth to achieve approximately 2×10^5 CFU/mL. Test compounds were dissolved in DMSO and diluted 1:50 in the assay, resulting in a final concentration range of 100 μM to 0.098 μM. […] At the end of the incubation, absorbance at 600 nm was determined using a spectrophotometer. Inhibition was quantitated by identifying the lowest concentration of test compound that was required to inhibit 95% of the growth of the bacteria. The results for Examples 1-73 are reported in Table I, expressed as the concentration of compound that inhibited 95% of bacterial growth (Minimum Inhibitory Threshold Concentration; MITC95).

For assay [2], the system named is Acinetobacter baumannii expressing TEM-1, AmpC, and Oxa-24/40 (CL6188). The assay can be described thus: Growth inhibitory concentration (OD600), Acinetobacter baumannii CL6188. The protocol: as §1, §2
The subject of assay [3] is Pseudomonas aeruginosa expressing AmpC (CL5701). The assay can be described thus: Growth inhibitory concentration (OD600), Pseudomonas aeruginosa CL5701. The method, then:
as §1, §2

The test system of assay [4] is Klebsiella pneumoniae expressing KPC-1 (CL6569). The assay can be described thus: Growth inhibitory concentration (OD600), Klebsiella pneumoniae CL6569. The protocol:
as §1, §2

Where a name gives a salt, the structure may show the parent alone.

As to `C[n+]1c2ccc(OC[C@H](O/N=C(\C(=O)N[C@@H]3C(=O)N(OS(=O)(=O)[O-])C3(C)C)c3csc(N)n3)C(=O)O)cc2cn1C[C@H](O)CN` [Example 51, (S)-3-((Z)-2-(((S)-2-((2-((R)-3-amino-2-hydroxypropyl)-1-methyl-2H-indazol-1-ium-5-yl)oxy)-1-carboxyethoxy)imino)-2-(2-aminothiazol-4-yl)acetamido)-2,2-dimethyl-4-oxoazetidin-1-yl Sulfate], the “EC_CLB30016 MITC95” value in assay [1] was 25 µM. The “AB_CL6188 MITC95” value in assay [2] stood at 6.25 µM. The “PA_CL5701 MITC95” value in assay [3] amounted to 12.5 µM. Also, in assay [4], the “KP_CL6569 MITC95” value amounted to 0.78 µM.

The record behind these values is patent US10407421B2, “Bicyclic aryl monobactam compounds and methods of use thereof for the treatment of bacterial infections” (priority 2016, dated 2019).
